The results in this text go back to patent publication US20100152261A1 (MITSUBISHI TANABE PHARMA CORPORATION, priority 2005, published 2010).

Test [1] deals with T1, muscarinic M2 receptor (Cavia porcellus, UniProt H0VRN8).
T1 construct: left atria were excised to prepare tissue specimens; from tissue; host or cells: isolated guinea pig left atrium (male Hartley)
T1 sequence (H0VRN8 1-466): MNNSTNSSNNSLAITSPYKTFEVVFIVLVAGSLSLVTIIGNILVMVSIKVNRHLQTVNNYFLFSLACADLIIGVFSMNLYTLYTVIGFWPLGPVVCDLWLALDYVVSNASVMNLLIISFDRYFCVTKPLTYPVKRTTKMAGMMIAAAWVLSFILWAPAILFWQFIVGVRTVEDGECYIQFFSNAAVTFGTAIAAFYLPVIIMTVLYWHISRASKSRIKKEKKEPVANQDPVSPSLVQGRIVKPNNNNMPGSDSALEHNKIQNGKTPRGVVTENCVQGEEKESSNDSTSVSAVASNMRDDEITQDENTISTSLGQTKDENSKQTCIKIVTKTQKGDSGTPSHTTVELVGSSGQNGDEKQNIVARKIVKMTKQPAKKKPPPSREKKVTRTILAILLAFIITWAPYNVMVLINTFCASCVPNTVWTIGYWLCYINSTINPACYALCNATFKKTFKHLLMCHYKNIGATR
Put plainly: Muscarinic M2 antagonistic action in isolated guinea pig left atrium (carbachol-induced relaxation, Schild method). The format is cell-based. The conditions noted are these: compound applied 30 minutes before carbachol. How it is done: Muscarinic M2 Antagonistic Action in Isolated Guinea Pig Left Atrium […] Each tissue specimen was kept warm at 37° C., suspended with a resting tension of 0.5 g in a 5-mL Magnus bath filled with a Krebs carbonate buffer bubbled with 95% O2/5% CO2. Then, contraction evoked by field electrical stimulation (4 Hz, 2 msec, 1.5×threshold potential) was measured. After a stabilization period of 60 minutes, carbachol-induced relaxation was isometrically measured and recorded by the cumulative method from 10^−8 M with an interval of 90 seconds for one concentration in an equal ratio of 3. After the measurement, the tissue specimen was immediately washed, and left for 45 minutes as a stabilization period before the next observation. The tissue specimen of which EC50 for the carbachol-induced relaxation was stabilized was considered as a control. Each test compound was applied 30 minutes before the addition of carbachol. The affinity (pA2) of the test compound was obtained in the same manner as in the case of the trachea.

Test [2] addresses T2, muscarinic M3 receptor (Cavia porcellus, UniProt H0W1Z3).
T2 construct: trachea was excised, and cut at every two tracheal cartilages to prepare tissue specimens; from tissue; host or cells: isolated guinea pig trachea (male Hartley)
Put plainly: Muscarinic M3 antagonistic action in isolated guinea pig trachea (carbachol-induced contraction, Schild method). The format is cell-based. The conditions noted are these: compound applied 15 minutes before carbachol. How it is done:
Muscarinic M3 Antagonistic Action in Isolated Guinea Pig Trachea
Male Hartley guinea pigs (350 to 600 g) were sacrificed by bleeding, and trachea was excised, and cut at every two tracheal cartilages to prepare tissue specimens. Each tissue specimen was kept warm at 37° C., suspended with a resting tension of 1 g in a 5-mL Magnus bath filled with a Krebs carbonate buffer containing indomethacin (1 μM) bubbled with 95% O2/5% CO2, and left for 60 minutes as a stabilization period. […] After the measurement, the tissue specimen was immediately washed, and left for 60 minutes as a stabilization period before the next contraction reaction, and the tissue specimen of which EC50 for the carbachol-induced contraction reaction was stabilized was considered as a control. Each test compound was applied 15 minutes before the addition of carbachol. The affinity (pA2) of the test compound was obtained by the Schild method (Arunlakshana, O. and Schild, H. O., Brit. J. Pharmacol., 1959, 14, 48-58).

[3] abbreviates: pA2 Left atrium M2, isolated guinea pig left atrium.
Where [4] appears, read: pA2 Trachea M3, isolated guinea pig trachea.

Like-named read-outs stand apart in the source and are kept apart here.

T2 sequence (H0W1Z3 1-590): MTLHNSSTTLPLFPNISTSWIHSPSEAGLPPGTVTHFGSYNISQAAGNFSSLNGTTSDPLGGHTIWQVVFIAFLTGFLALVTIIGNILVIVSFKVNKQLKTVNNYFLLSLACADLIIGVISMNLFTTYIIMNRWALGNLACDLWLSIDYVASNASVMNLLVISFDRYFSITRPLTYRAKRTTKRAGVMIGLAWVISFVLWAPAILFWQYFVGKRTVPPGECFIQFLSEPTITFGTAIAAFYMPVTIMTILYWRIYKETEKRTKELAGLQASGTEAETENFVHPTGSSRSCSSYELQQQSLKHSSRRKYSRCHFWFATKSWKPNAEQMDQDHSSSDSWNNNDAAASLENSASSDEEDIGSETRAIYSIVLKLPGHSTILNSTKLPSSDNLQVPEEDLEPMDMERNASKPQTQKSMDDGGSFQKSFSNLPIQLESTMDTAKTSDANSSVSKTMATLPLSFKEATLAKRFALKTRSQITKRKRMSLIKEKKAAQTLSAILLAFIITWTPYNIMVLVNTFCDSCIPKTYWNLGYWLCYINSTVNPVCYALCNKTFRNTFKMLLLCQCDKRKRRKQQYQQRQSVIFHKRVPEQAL

As to “3-(trans-3-(Carbamoyl(diphenyl)methyl)cyclopentyl)-1-cyclopentylmethyl-2-methyl-3H-imidazol-1-ium bromide [Example 68]”, the “pA2 Left atrium M2” value in test [1] (isolated guinea pig left atrium) worked out at 7.4. In test [2] (isolated guinea pig trachea), the “pA2 Trachea M3” value worked out at 9.4.

For the molecule `C[n+]1ccn([C@H]2CC[C@@H](C(C(N)=O)(c3ccccc3)c3ccccc3)C2)c1` (relative stereo) [Example 5, 3-(cis-3-(Carbamoyl(diphenyl)methyl)cyclopentyl)-1-methyl-3H-imidazol-1-ium iodide], the Kb in test [1] (setting [3]) is 31.6 nM; in test [2] (setting [4]) it was 2.51 nM.

`CCOCC[n+]1ccn([C@H]2CC[C@@H](C(C(N)=O)(c3ccccc3)c3ccccc3)C2)c1C` (relative stereo) [Example 25, 3-(cis-3-(Carbamoyl(diphenyl)methyl)cyclopentyl)-1-(2-ethoxy-ethyl)-2-methyl-3H-imidazol-1-ium bromide]: the Kb in test [1] (setting [3]) is 25.1 nM; in test [2] (setting [4]), 1.58 nM.

For `CC(=O)OCC[n+]1ccn([C@H]2CC[C@@H](C(C(N)=O)(c3ccccc3)c3ccccc3)C2)c1C` (relative stereo) [Example 51, 3-(cis-3-(Carbamoyl(diphenyl)methyl)cyclopentyl)-1-(2-acetoxy-ethyl)-2-methyl-3H-imidazol-1-ium bromide], the Kb is 31.6 nM in test [1] (setting [3]) and 1 nM in test [2] (setting [4]).

In the case of `Cc1n([C@H]2CC[C@@H](C(C(N)=O)(c3ccccc3)c3ccccc3)C2)cc[n+]1CCCO` (relative stereo) [Example 54, 3-(cis-3-(Carbamoyl(diphenyl)methyl)cyclopentyl)-1-(3-hydroxy-propyl)-2-methyl-3H-imidazol-1-ium bromide], the Kb in test [1] (setting [3]) was 31.6 nM; in test [2] (setting [4]), 1 nM.

With `Cc1n([C@H]2CC[C@H](C(C(N)=O)(c3ccccc3)c3ccccc3)C2)cc[n+]1C` (relative stereo) [Example 66, 3-(trans-3-(Carbamoyl(diphenyl)methyl)cyclopentyl)-1,2-dimethyl-3H-imidazol-1-ium iodide], the Kb in test [1] (setting [3]) is 39.8 nM; in test [2] (setting [4]), 1.26 nM.

Turning to `COCC[n+]1ccn([C@H]2CC[C@H](C(C(N)=O)(c3ccccc3)c3ccccc3)C2)c1C` (relative stereo) [Example 67, 3-(trans-3-(Carbamoyl(diphenyl)methyl)cyclopentyl)-1-(2-methoxyethyl)-2-methyl-3H-imidazol-1-ium bromide], the Kb in test [1] (setting [3]) is 79.4 nM; in test [2] (setting [4]) it was 1.26 nM.

Consider `C[n+]1cn([C@H]2CC[C@@H](C(C(N)=O)(c3ccccc3)c3ccccc3)C2)cn1` (relative stereo) [Example 69, 4-(cis-3-(Carbamoyl(diphenyl)methyl)cyclopentyl)-1-methyl-4H-[1,2,4]triazol-1-ium iodide], for which the Kb in test [1] (setting [3]) is 25.1 nM; in test [2] (setting [4]), 0.794 nM.

In the case of `NC(=O)C(c1ccccc1)(c1ccccc1)[C@@H]1CC[C@H](n2c[n+](Cc3ccccc3)cn2)C1` (relative stereo) [Example 71, 4-Benzyl-1-(cis-3-(carbamoyl(diphenyl)methyl)cyclopentyl)-1H-[1,2,4]triazol-4-ium bromide], the figures for the Kb in test [1] (setting [3]) and in test [2] (setting [4]) were 39.8 nM and 0.794 nM, respectively.

`COCC[n+]1cn([C@H]2CC[C@@H](C(C(N)=O)(c3ccccc3)c3ccccc3)C2)cn1` (relative stereo) [Example 72, 4-(cis-3-(Carbamoyl(diphenyl)methyl)cyclopentyl)-1-(2-methoxyethyl)-4H-[1,2,4]triazol-1-ium bromide]: the Kb in test [1] (setting [3]) was 31.6 nM; in test [2] (setting [4]), 0.794 nM.

With `Cc1n([C@H]2CC[C@H](C(C(N)=O)(c3ccccc3)c3ccccc3)C2)cc[n+]1CCC(C)C` (relative stereo) [Example 73, 3-(trans-3-(Carbamoyl(diphenyl)methyl)cyclopentyl)-2-methyl-1-(3-methylbutyl)-3H-imidazol-1-ium bromide], the values for the Kb in test [1] (setting [3]) and in test [2] (setting [4]) were 6.31 nM and 0.631 nM, respectively.

In the case of `CC(=O)OCCC[n+]1ccn([C@H]2CC[C@H](C(C(N)=O)(c3ccccc3)c3ccccc3)C2)c1C` (relative stereo) [Example 75, 1-(3-Acetoxypropyl)-3-(trans-3-(carbamoyl(diphenyl)methyl)cyclopentyl)-2-methyl-3H-imidazol-1-ium bromide], the Kb in test [1] (setting [3]) is 158 nM; in test [2] (setting [4]), 0.501 nM.

Regarding `CC(=O)C[n+]1ccn([C@H]2CC[C@H](C(C(N)=O)(c3ccccc3)c3ccccc3)C2)c1C` (relative stereo) [Example 86, 3-(trans-3-(Carbamoyl(diphenyl)methyl)cyclopentyl)-2-methyl-1-(2-oxopropyl)-3H-imidazol-1-ium bromide], the Kb in test [1] (setting [3]) is 1260 nM; in test [2] (setting [4]) it was 1.26 nM.

With `Cc1n([C@H]2CC[C@H](C(C#N)(c3ccccc3)c3ccccc3)C2)cc[n+]1Cc1ccccc1` (relative stereo) [Example 87, 1-Benzyl-3-(trans-3-(cyano(diphenyl)methyl)cyclopentyl)-2-methyl-3H-imidazol-1-ium bromide], the Kb in test [1] (setting [3]) is 50.1 nM; in test [2] (setting [4]) it was 1 nM.

For the molecule `CC(=O)C[n+]1ccn([C@H]2CC[C@H](C(C#N)(c3ccccc3)c3ccccc3)C2)c1C` (relative stereo) [Example 88, 3-(trans-3-(Cyano(diphenyl)methyl)cyclopentyl)-2-methyl-1-(2-oxopropyl)-3H-imidazol-1-ium bromide], the Kb was 251 nM in test [1] (setting [3]) and 1 nM in test [2] (setting [4]).

In the case of `Cc1n([C@H]2CC[C@H](C(C(N)=O)(c3ccccc3)c3ccccc3)C2)cc[n+]1Cc1ccccc1` (single isomer, unassigned) [Example 97, 1-Benzyl-3-(trans-3-(carbamoyl(diphenyl)methyl)cyclopentyl)-2-methyl-3H-imidazol-1-ium bromide], the values for the Kb in test [1] (setting [3]) and in test [2] (setting [4]) were 3.98 nM and 0.1 nM, respectively.

Consider `Cc1n([C@H]2CC[C@H](C(C(N)=O)(c3ccccc3)c3ccccc3)C2)cc[n+]1Cc1ccccc1` (single isomer, unassigned) [Example 98, 1-Benzyl-3-(trans-3-(carbamoyl(diphenyl)methyl)cyclopentyl)-2-methyl-3H-imidazol-1-ium bromide], for which the Kb in test [1] (setting [3]) was 15.8 nM; in test [2] (setting [4]) it was 0.398 nM.

`CN1[C@@H]2CC[C@H]1C[C@@H](OC(=O)C(CO)c1ccccc1)C2` (stereo partly drawn) [Atropine, reference compound] showed a Kb in test [1] (setting [3]) of 2.51 nM.

For `CC1=[N+](C)CCN1[C@@H]1CC[C@H](C(C(N)=O)(c2ccccc2)c2ccccc2)C1` [Example 57, 3-((1R,3S)-3-(Carbamoyl(diphenyl)methyl)cyclopentyl)-1,2-dimethyl-4,5-dihydro-3H-imidazol-1-ium iodide], the Kb was 25.1 nM in test [1] (setting [3]) and 1.26 nM in test [2] (setting [4]).

Regarding `CC1=[N+](C)CCN1[C@H]1CC[C@@H](C(C(N)=O)(c2ccccc2)c2ccccc2)C1` [Example 58, 3-((1S,3R)-3-(Carbamoyl(diphenyl)methyl)cyclopentyl)-1,2-dimethyl-4,5-dihydro-3H-imidazol-1-ium iodide], the Kb in test [1] (setting [3]) is 79.4 nM; in test [2] (setting [4]), 3.16 nM.

As to `COCC[n+]1ccn([C@H]2CC[C@@H](C(C(N)=O)(c3ccccc3)c3ccccc3)C2)c1C` [Example 76, 3-((1S,3R)-3-(Carbamoyl(diphenyl)methyl)cyclopentyl)-1-(2-methoxyethyl)-2-methyl-3H-imidazol-1-ium para-toluenesulfonate], the Kb in test [1] (isolated guinea pig left atrium, read-out: pA2 Left atrium M2 (converted)) was 200 nM; in test [2] (isolated guinea pig trachea, read-out: pA2 Trachea M3 (converted)), 1.26 nM.

On to `Cc1n([C@H]2CC[C@@H](C(C(N)=O)(c3ccccc3)c3ccccc3)C2)cc[n+]1C(F)F` [Example 81, 3-((1S,3R)-3-(Carbamoyl(diphenyl)methyl)cyclopentyl)-1-difluoromethyl-2-methyl-3H-imidazol-1-ium bromide], for which the Kb in test [2] (setting [4]) was 1 nM.
